Assay results published in patent US20250101038A1, “COMPOUNDS” (priority 2021, published 2025).
Where “and” joins values, the source holds several entries; their conditions need not be identical. Equal entries are not always repeated. Where two headings read alike, the source gives them in different places.

Test: In vivo pharmacokinetics, plasma and brain exposure after IP dosing
Parameters: species or system male C57BL/6 mice
Conditions: for B:P Ratio, Individual / Plasma Concentration, Individual / concentration at 0.5 h / concentration at 0.083 h / concentration at 4 h / Kp at 0.083 h / Kp at 0.5 h / Kp at 4 h: 10 mg/kg; for Kp at 0.083 h / Kp at 0.5 h / Kp at 4 h: brain/plasma; for Cmax / Tmax / AUC(0-inf) / half-life: mouse, male C57BL/6 mice; for AUC(0-inf): read-out: Plasma AUC0-inf; for half-life: read-out: Apparent T1/2 (converted)
[1] = 0.083 h, IP 10 mg/kg, individual mouse
[2] = 0.083 h, IP 10 mg/kg, individual mouse, read-out: Brain Parenchyma Concentration, Individual
[3] = 0.5 h, IP 10 mg/kg, individual mouse
[4] = 0.5 h, IP 10 mg/kg, individual mouse, read-out: Brain Parenchyma Concentration, Individual
[5] = 4 h, IP 10 mg/kg, individual mouse
[6] = 4 h, IP 10 mg/kg, individual mouse, read-out: Brain Parenchyma Concentration, Individual
[7] = male, C57BL/6, mouse, brain, ip, 0.083 h, n = 3, read-out: Brain Parenchyma Concentration, Mean ± SD
[8] = male, C57BL/6, mouse, brain, ip, 0.5 h, individual mouse, read-out: Brain Parenchyma Concentration, Individual
[9] = male, C57BL/6, mouse, brain, ip, 0.5 h, n = 3, read-out: Brain Parenchyma Concentration, Mean ± SD
[10] = male, C57BL/6, mouse, brain, ip, 4 h, n = 3, read-out: Brain Parenchyma Concentration, Mean ± SD
[11] = male, C57BL/6, mouse, ip, 0.083 h, individual mouse, read-out: B:P Ratio, Individual
[12] = male, C57BL/6, mouse, ip, 0.083 h, n = 3, read-out: B:P Ratio, Mean ± SD
[13] = male, C57BL/6, mouse, ip, 0.5 h, individual mouse, read-out: B:P Ratio, Individual
[14] = male, C57BL/6, mouse, ip, 0.5 h, n = 3, read-out: B:P Ratio, Mean ± SD
[15] = male, C57BL/6, mouse, ip, 4 h, individual mouse, read-out: B:P Ratio, Individual
[16] = male, C57BL/6, mouse, ip, 4 h, n = 3, read-out: B:P Ratio, Mean ± SD
[17] = male, C57BL/6, mouse, plasma, ip, 0.083 h, individual mouse, read-out: Plasma Concentration, Individual
[18] = male, C57BL/6, mouse, plasma, ip, 0.083 h, n = 3, read-out: Plasma Concentration, Mean ± SD
[19] = male, C57BL/6, mouse, plasma, ip, 0.5 h, individual mouse, read-out: Plasma Concentration, Individual
[20] = male, C57BL/6, mouse, plasma, ip, 0.5 h, n = 3, read-out: Plasma Concentration, Mean ± SD
[21] = male, C57BL/6, mouse, plasma, ip, 4 h, n = 3, read-out: Plasma Concentration, Mean ± SD

Protocol: The systemic exposure of selected examples was studied in non-fasted male C57BL/6 mice weighing between 18.9-25.5 g. Mice had access to food and water ad libitum throughout the pre- and post-dose sampling period.
On the day of dosing, the formulation of each compound was prepared by dissolving solid compound in phosphate buffer saline (50 mM) using vortexing, creating colourless solutions (pH 6.4-6.5) for each compound.
Compounds were dosed to mice by IP injection (10 mL/kg dose volume via a 27G needle; n=9 mice per compound) and blood samples were collected at 5 and 30 min; 1, 2 and 4 h post-dose (n=3 mice per time point for each compound). A maximum of three blood samples were obtained from each mouse, with plasma samples being taken via submandibular bleed (approximately 120 μL). Once collected, blood samples were centrifuged immediately, supernatant plasma was removed, and stored at −80° C. until analysis by LCMS. In addition, at the 5 and 30 min and 4 h post-dose time points, the whole brain was rapidly removed from the carcass soon after the blood collection. The whole brains were blotted to remove excess blood, placed into pre-weighed polypropylene vials, and weighed. The brains were snap frozen in dry ice and subsequently stored frozen (−80° C.) until analysis.
Concentrations of test compound in plasma and tissue samples were determined using an LCMS/MS method validated for linearity, accuracy, precision, matrix factor and recovery (Table 2). Test compound standard solutions were diluted from a concentrated stock solution (32 mM in H2O) using 50% can in H2O (v/v) and a calibration curve was prepared in a matched matrix to the test samples.
Plasma: The plasma calibration curve was prepared by spiking aliquots of blank mouse plasma (25 μL) with test compound standard solutions (5 μL) and internal standard solution (5 μL of diazepam, 5 μg/mL in 50% acetonitrile in water). Test plasma samples (25 μL) were thawed, mixed, and then spiked with internal standard solution (5 μL). Plasma protein precipitation was performed by addition of acetonitrile (3-fold volume ratio) and thorough vortex mixing. Samples were centrifuged (RCF=9391×g) for 3 minutes and the supernatant (90 μL) was collected for analysis.
Tissue: Pre-weighed tissue samples (brain) were homogenised using a glass rod in buffer containing an EDTA/potassium fluoride solution (0.1 M/4 mg/mL) as a stabilisation cocktail to minimise the potential for ex vivo degradation (3 mL cocktail/g tissue). The tissue homogenate was briefly centrifuged (RCF=79×g) for 10 seconds to separate the foam layer before transferring an aliquot of the tissue homogenate (200 μL) to a fresh Eppendorf tube for sample extraction. Calibration standards were prepared by spiking blank brain homogenate (200 μL) with the solution standards (10 μL) and the internal standard (10 μL). Study samples were similarly prepared, except that acetonitrile (10 μL) was added instead of solution standards to maintain the same volume. Protein precipitation was carried out by the addition of a 3-fold volume of acetonitrile, followed by vortex mixing and centrifugation (RCF=9391×g) for 3 min to recover the supernatant for analysis.
Replicate analysis: Triplicate analytical replicate (ARs) samples were prepared similarly to the standards for each sample type at three concentrations (50, 500 and 2,000 ng/ml) and repeat injections of these ARs were included throughout the analytical run to assess assay performance. The extraction of the test compound from the standards and ARs were conducted as described above.

| Compound | B:P Ratio, Individual [1] | Plasma Concentration, Individual [1] | concentration at 0.5 h [2] | B:P Ratio, Individual [3] | Plasma Concentration, Individual [3] | concentration at 0.5 h [4] | B:P Ratio, Individual [5] | Plasma Concentration, Individual [5] | concentration at 0.5 h [6] | concentration at 0.083 h [7] [µM] | concentration at 0.5 h [8] [µM] | concentration at 0.5 h [9] [µM] | concentration at 4 h [10] [µM] | Kp at 0.083 h [11] | Kp at 0.083 h [12] | Kp at 0.5 h [13] | Kp at 0.5 h [14] | Kp at 4 h [15] | Kp at 4 h [16] | concentration at 0.083 h [17] [µM] | also measured |
| --- | --- | --- | --- | --- | --- | --- | --- | --- | --- | --- | --- | --- | --- | --- | --- | --- | --- | --- | --- | --- | --- |
| CCN(C)CCc1c[nH]c2c(C)cc(OC)cc12 [Example P-51, N-ethyl-2-(5-methoxy-7-methyl-1H-indol-3-yl)-N-methylethan-1-amine] | 6.1 and 4.0 | 5.38 µM and 7.55 µM | 33.0 µM and 30.4 µM | 11 and 9.2 | 4.49 µM and 3.79 µM | 49.3 µM and 35.0 µM | 8.4 and 8.7 | 0.0254 µM and 0.0505 µM and 0.111 µM | 0.230 µM and 0.424 µM and 0.958 µM | 30.7 ± 2.2 | 25.5 | 36.6 ± 12 | 0.538 ± 0.377 | 4.5 | 4.9 ± 1.1 | 7.4 | 9.2 ± 1.8 | 9.1 | 8.7 ± 0.33 | 6.37 | concentration at 0.083 h (male, C57BL/6, mouse, brain, ip, 0.083 h, individual mouse, read-out: Brain Parenchyma Concentration, Individual): 28.6 µM; concentration at 0.083 h [18]: 6.43 ± 1.09 µM; concentration at 0.5 h [19]: 3.46 µM; concentration at 0.5 h [20]: 3.91 ± 0.529 µM; concentration at 4 h [21]: 0.0622 ± 0.0439 µM; Cmax (plasma, IP 10 mg/kg): 6.43 µM; Tmax (plasma, IP 10 mg/kg): 4.98 min; AUC(0-inf) (plasma, IP 10 mg/kg): 5.39 µM·h; half-life (IP 10 mg/kg, plasma): 36 min |
| CCN(C)CCc1c[nH]c2ccc(OC)c(C)c12 [Example P-37, N-ethyl-2-(5-methoxy-4-methyl-1H-indol-3-yl)-N-methylethan-1-amine] | 6.9 and 8.6 | 2.21 µM and 2.12 µM | 31.6 µM and 15.2 µM and 18.1 µM | 18 and 16 | 1.15 µM and 1.48 µM | 20.6 µM and 24.3 µM | 15 | 0.0091 µM and 0.0104 µM | 0.134 µM and 0.152 µM | 21.6 ± 8.76 | 25.9 | 23.6 ± 2.74 | 0.129 ± 0.0255 | 9.4 | 8.3 ± 1.3 | 20 | 18 ± 2 | 13 | 14 ± 1.2 | 3.36 | concentration at 4 h (male, C57BL/6, mouse, brain, ip, 4 h, individual mouse, read-out: Brain Parenchyma Concentration, Individual): 0.102 µM; concentration at 0.083 h [18]: 2.56 ± 0.0691 µM; concentration at 0.5 h [19]: 1.28 µM; concentration at 0.5 h [20]: 1.3 ± 0.162 µM; concentration at 4 h (male, C57BL/6, mouse, plasma, ip, 4 h, individual mouse, read-out: Plasma Concentration, Individual): 0.0081 µM; concentration at 4 h [21]: 0.0092 ± 0.0012 µM; Cmax (plasma, IP 10 mg/kg): 2.56 µM; Tmax (plasma, IP 10 mg/kg): 4.98 min; AUC(0-inf) (plasma, IP 10 mg/kg): 1.72 µM·h; half-life (IP 10 mg/kg, plasma): 30 min |
